The values below come from BindingDB's records for doi:10.1046/j.1468-2982.2001.00157.x (Roche Bioscience, 2001).

For test [1], the target named is 5-hydroxytryptamine receptor 7 (Rattus norvegicus, UniProt P32305).
Test [2] has as its target 5-hydroxytryptamine receptor 2A (Rattus norvegicus, UniProt P14842).
Test [3] has as its target 5-hydroxytryptamine receptor 1B (Rattus norvegicus, UniProt P28564).
Test [4] has as its target 5-hydroxytryptamine receptor 1D (Rattus norvegicus, UniProt P28565).
For test [5], the target named is T1, 5-hydroxytryptamine receptor 3A (Rattus norvegicus, UniProt P35563).
T1 sequence (P35563 whole entry): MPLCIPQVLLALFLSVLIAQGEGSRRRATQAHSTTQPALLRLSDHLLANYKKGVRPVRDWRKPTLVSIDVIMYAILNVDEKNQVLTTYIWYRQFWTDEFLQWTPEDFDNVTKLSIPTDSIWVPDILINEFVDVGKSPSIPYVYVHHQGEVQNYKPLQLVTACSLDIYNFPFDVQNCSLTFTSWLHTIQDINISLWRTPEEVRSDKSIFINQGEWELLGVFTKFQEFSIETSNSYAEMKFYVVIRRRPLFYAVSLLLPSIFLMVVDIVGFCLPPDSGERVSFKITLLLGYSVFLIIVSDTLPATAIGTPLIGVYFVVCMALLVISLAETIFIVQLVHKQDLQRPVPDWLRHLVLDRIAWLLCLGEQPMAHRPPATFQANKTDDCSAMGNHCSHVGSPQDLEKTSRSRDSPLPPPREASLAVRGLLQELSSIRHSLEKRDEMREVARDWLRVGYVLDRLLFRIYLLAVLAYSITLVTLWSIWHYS

Test [6] addresses 5-hydroxytryptamine receptor 6 (Rattus norvegicus, UniProt P31388).

For orientation: Ki means the dissociation constant of the complex between target and ligand, obtained from inhibition or displacement. Lower therefore signals a stronger hold on the target.

Chain of 5-hydroxytryptamine receptor 6 (P31388 whole entry): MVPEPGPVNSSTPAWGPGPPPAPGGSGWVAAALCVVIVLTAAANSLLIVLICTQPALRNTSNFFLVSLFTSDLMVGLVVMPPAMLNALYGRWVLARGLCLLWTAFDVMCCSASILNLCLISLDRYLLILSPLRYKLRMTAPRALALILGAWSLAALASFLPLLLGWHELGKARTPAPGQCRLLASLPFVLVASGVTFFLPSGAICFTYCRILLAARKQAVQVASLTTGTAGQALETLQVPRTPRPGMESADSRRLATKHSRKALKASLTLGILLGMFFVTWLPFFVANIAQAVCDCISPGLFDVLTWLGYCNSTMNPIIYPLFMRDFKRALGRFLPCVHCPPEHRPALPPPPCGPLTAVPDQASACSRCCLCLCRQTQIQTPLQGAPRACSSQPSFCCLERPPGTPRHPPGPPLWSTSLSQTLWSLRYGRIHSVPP
Chain of 5-hydroxytryptamine receptor 1D (P28565 whole entry): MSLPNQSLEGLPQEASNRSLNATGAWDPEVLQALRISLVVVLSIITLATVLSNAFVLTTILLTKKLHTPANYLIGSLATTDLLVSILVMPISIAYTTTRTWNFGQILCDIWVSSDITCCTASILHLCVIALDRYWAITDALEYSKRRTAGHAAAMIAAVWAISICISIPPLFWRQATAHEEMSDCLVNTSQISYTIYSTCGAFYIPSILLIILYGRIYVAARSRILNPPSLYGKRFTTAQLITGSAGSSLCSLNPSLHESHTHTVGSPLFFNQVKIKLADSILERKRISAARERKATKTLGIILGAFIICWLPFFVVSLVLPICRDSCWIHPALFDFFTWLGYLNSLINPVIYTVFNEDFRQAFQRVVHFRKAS
Chain of 5-hydroxytryptamine receptor 2A (P14842 whole entry): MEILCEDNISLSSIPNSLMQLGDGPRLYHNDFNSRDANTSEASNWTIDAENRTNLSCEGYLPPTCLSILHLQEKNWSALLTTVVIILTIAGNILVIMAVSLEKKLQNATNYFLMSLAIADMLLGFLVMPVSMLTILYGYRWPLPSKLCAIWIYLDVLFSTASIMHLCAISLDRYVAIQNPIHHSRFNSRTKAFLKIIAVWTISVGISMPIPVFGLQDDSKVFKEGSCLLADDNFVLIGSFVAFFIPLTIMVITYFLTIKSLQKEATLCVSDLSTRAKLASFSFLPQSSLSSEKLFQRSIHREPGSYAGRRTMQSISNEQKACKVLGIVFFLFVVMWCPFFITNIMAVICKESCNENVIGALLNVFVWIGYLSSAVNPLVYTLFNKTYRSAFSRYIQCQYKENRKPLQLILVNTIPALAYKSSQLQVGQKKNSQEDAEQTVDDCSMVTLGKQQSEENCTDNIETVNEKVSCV
Chain of 5-hydroxytryptamine receptor 1B (P28564 whole entry): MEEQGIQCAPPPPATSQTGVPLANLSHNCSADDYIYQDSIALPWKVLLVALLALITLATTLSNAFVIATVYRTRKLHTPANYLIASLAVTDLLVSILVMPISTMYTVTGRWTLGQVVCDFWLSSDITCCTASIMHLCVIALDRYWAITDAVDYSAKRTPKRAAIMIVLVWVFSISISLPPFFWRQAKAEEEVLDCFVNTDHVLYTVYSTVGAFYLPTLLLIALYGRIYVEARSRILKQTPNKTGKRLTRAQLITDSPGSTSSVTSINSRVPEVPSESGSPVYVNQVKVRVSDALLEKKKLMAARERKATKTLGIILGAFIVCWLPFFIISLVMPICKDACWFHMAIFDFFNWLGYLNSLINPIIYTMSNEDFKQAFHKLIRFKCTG
Chain of 5-hydroxytryptamine receptor 7 (P32305 whole entry): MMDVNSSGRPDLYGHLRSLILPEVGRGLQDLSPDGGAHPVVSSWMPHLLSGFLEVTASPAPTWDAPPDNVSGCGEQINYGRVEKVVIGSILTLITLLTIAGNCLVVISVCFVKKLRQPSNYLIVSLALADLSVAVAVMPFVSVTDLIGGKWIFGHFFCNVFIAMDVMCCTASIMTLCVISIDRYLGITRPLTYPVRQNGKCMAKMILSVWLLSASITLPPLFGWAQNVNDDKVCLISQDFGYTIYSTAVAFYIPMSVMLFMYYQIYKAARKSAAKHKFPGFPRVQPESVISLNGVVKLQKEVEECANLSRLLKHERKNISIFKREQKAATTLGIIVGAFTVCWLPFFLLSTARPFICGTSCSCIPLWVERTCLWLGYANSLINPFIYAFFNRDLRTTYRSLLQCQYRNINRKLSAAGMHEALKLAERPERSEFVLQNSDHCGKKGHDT

On to `Clc1cccc(N2CCNCC2)c1` [mCPP], for which the Ki stood at 251 nM in test [1]; 200 nM in test [2]; 251 nM in test [3]; 1580 nM in test [4]; 100 nM in test [5]; 2510 nM in test [6].
